Test results: paper PMC7676998 (Journal of medicinal chemistry, 2019)
Read-outs that look alike come from different tables or passages of the source.

What was measured:
adrenergic α1B receptor = target: T1, adrenergic α1B receptor (Homo sapiens, UniProt P35368); assay: Radioligand binding, adrenergic α1B
T1 sequence (P35368 1-520): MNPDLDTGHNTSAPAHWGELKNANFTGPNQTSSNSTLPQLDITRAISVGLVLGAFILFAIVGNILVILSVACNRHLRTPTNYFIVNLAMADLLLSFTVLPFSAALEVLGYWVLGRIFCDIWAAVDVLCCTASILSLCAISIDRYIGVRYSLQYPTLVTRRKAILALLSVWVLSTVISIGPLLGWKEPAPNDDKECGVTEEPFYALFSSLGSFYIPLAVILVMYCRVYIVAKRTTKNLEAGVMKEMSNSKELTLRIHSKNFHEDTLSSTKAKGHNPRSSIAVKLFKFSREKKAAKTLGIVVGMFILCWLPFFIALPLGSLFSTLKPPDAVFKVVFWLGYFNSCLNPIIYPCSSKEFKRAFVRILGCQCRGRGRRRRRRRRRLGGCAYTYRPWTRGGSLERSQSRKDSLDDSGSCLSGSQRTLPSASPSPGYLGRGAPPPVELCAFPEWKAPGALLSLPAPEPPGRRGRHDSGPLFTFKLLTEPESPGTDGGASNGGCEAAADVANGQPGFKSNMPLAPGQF

MOP = MOP (Homo sapiens, UniProt P35372); type: cell-based
Chain of MOP (P35372 whole entry): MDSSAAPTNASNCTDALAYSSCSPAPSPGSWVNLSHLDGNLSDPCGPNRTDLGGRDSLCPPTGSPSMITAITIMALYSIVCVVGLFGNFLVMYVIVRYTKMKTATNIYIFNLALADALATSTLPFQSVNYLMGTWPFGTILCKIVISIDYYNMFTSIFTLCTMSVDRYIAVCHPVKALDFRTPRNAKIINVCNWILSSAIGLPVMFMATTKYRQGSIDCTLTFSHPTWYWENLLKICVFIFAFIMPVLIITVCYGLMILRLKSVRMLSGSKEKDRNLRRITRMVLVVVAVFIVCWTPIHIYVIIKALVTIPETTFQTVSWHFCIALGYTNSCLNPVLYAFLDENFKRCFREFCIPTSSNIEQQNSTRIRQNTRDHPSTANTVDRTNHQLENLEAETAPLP

α1A adrenergic receptor = target: T2, α1A adrenergic receptor (Homo sapiens, UniProt P35348); type: cell-based
T2 sequence (P35348 1-466): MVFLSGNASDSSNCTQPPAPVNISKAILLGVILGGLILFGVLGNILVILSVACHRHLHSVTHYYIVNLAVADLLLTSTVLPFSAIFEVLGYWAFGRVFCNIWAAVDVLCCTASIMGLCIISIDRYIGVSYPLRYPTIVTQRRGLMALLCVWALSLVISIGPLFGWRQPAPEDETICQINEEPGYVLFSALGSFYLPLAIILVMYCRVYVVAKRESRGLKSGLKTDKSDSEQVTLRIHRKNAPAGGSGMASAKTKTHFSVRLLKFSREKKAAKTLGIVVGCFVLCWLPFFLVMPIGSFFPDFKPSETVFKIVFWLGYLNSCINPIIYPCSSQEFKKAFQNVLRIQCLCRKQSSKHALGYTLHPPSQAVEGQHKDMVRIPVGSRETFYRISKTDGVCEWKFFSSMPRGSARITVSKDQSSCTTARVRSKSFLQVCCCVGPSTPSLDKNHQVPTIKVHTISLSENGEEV

α1B adrenergic receptor = target: T3, α1B adrenergic receptor (Homo sapiens, UniProt P35368); type: cell-based
T3 sequence (P35368 1-520): T1 sequence (P35368 1-520)

α1D adrenergic receptor = target: T4, α1D adrenergic receptor (Homo sapiens, UniProt P25100); type: cell-based
T4 sequence (P25100 1-572): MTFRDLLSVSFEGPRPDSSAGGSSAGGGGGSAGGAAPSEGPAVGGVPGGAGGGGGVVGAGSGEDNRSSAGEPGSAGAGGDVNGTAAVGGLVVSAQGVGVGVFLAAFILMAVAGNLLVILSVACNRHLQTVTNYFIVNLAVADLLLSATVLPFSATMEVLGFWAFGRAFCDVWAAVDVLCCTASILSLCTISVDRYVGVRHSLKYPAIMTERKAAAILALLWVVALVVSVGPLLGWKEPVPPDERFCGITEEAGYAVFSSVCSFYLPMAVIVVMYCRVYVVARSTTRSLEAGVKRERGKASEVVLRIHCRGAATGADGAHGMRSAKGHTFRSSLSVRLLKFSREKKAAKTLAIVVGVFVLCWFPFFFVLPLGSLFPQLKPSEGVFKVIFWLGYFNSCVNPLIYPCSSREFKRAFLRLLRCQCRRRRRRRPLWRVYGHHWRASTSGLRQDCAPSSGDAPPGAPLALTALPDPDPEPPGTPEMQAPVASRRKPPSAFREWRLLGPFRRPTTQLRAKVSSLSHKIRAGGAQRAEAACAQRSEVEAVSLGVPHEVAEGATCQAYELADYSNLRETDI

α2C adrenergic receptor = target: T5, α2C adrenergic receptor (Homo sapiens, UniProt P18825); type: cell-based
T5 sequence (P18825 1-462): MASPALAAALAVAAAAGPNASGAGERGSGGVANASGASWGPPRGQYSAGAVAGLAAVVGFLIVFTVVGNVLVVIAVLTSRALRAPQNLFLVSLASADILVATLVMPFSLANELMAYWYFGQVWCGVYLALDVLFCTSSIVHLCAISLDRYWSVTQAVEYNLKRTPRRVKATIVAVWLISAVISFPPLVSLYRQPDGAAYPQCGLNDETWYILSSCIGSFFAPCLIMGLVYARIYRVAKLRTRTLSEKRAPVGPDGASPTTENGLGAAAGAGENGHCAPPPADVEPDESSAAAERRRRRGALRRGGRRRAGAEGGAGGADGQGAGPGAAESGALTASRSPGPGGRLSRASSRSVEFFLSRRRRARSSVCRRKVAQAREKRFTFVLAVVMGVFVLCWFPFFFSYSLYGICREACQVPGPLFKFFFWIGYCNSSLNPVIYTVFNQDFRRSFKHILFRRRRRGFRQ

adrenergic α1A receptor = target: T6, adrenergic α1A receptor (Homo sapiens, UniProt P35348); assay: Radioligand binding, adrenergic α1A
T6 sequence (P35348 1-466): T2 sequence (P35348 1-466)

adrenergic α1D receptor = target: T7, adrenergic α1D receptor (Homo sapiens, UniProt P25100); assay: Radioligand binding, adrenergic α1D
T7 sequence (P25100 1-572): T4 sequence (P25100 1-572)

adrenergic α2A receptor = target: T8, adrenergic α2A receptor (Homo sapiens, UniProt P08913); assay: Radioligand binding, adrenergic α2A
T8 sequence (P08913 1-465): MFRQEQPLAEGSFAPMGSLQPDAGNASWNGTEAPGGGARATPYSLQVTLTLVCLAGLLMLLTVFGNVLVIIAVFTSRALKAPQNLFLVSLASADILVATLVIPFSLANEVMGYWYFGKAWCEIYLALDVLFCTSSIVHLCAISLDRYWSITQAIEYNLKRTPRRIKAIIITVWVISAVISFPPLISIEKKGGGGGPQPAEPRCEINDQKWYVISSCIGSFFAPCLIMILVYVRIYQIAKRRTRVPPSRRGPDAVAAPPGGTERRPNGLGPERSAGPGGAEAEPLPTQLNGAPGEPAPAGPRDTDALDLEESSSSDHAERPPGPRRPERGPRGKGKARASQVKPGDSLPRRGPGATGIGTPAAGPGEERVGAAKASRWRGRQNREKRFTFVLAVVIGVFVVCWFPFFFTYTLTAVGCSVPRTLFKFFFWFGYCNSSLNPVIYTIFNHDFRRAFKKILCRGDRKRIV

adrenergic α2B receptor = target: T9, adrenergic α2B receptor (Homo sapiens, UniProt P18089); type: binding
T9 sequence (P18089 1-450): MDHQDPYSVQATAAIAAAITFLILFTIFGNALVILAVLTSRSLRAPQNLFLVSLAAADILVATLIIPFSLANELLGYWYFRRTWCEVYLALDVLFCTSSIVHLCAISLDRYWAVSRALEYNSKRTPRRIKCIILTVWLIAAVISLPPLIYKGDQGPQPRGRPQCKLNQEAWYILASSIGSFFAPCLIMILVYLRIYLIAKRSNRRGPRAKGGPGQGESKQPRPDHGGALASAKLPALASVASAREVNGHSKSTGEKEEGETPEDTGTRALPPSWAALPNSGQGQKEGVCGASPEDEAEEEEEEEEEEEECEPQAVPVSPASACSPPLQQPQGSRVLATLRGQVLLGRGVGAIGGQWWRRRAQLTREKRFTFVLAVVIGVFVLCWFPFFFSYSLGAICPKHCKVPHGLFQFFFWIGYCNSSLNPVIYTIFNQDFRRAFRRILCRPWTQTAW

[1] = target: delta opioid receptor (DOP) (Homo sapiens, UniProt P41143); assay: Radioligand binding, delta opioid receptor
Chain of delta opioid receptor (DOP) (P41143 whole entry): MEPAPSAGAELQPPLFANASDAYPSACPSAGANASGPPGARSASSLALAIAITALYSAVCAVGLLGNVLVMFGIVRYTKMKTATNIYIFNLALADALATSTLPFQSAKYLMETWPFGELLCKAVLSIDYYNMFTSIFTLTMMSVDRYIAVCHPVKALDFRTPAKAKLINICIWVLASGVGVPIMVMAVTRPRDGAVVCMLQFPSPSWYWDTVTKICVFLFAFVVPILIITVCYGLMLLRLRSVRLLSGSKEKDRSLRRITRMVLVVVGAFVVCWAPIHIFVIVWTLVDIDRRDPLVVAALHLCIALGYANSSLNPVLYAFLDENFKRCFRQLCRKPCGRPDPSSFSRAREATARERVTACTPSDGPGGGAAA

mu opioid receptor (MOP) = mu opioid receptor (MOP) (Homo sapiens, UniProt P35372); type: binding
Chain of mu opioid receptor (MOP) (P35372 whole entry): as the sequence (P35372 whole entry) above

nociceptin NOP (ORL1) = nociceptin NOP (ORL1) (Homo sapiens, UniProt P41146); assay: Radioligand binding, nociceptin receptor
Chain of nociceptin NOP (ORL1) (P41146 whole entry): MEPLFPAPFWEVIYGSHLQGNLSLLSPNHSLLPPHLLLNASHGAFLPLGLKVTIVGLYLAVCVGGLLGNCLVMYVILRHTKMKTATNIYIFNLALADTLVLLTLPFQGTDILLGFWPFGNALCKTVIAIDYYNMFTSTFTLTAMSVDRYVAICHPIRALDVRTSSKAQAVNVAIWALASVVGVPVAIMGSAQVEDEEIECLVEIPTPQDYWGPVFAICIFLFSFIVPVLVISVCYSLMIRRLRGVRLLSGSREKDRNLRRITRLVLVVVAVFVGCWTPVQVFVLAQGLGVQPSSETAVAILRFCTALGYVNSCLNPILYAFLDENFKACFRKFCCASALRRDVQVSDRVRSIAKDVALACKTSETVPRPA

Compound: CC[C@@H]1CN2CCc3c([nH]c4cccc(OC)c34)[C@@H]2C[C@@H]1/C(=C\OC)C(=O)OC [mitragynine]
- percent displacement of bound radioligand, adrenergic α1B (adrenergic α1B receptor; 100 nM test compound): −12.5%
- functional effect at MOP (MOP): partial agonists
- agonist effect at α1A (α1A adrenergic receptor): partial agonist
- antagonist effect at α−1A (α1A adrenergic receptor): competitive antagonist effects
- antagonist effect at α−1B (α1B adrenergic receptor): competitive antagonist effects
- agonist effect at α1D (α1D adrenergic receptor): partial agonist
- antagonist effect at α−1D (α1D adrenergic receptor): competitive antagonist effects
- antagonist effect at α−2C (α2C adrenergic receptor): competitive antagonist effects

Compound: CC[C@@H]1CN2CCc3c([nH]c4ccccc34)[C@@H]2C[C@@H]1/C(=C\OC)C(=O)OC [corynantheidine]
- percent displacement of bound radioligand, adrenergic α1A (adrenergic α1A receptor; 100 nM test compound): 45.9%
- percent displacement of bound radioligand, adrenergic α1A (adrenergic α1A receptor; 10,000 nM test compound): 100.5%
- percent displacement of bound radioligand, adrenergic α1B (adrenergic α1B receptor; 100 nM test compound): 19.6%
- percent displacement of bound radioligand, adrenergic α1B (adrenergic α1B receptor; 10,000 nM test compound): 91.0%
- percent displacement of bound radioligand, adrenergic α1D (adrenergic α1D receptor; 100 nM test compound): 73.5%
- percent displacement of bound radioligand, adrenergic α1D (adrenergic α1D receptor; 10,000 nM test compound): 101.2%
- fold higher affinity at the α−1D receptor than mitragynine (adrenergic α1D receptor; ratio of Ki versus mitragynine): 131 fold
- percent displacement of bound radioligand, adrenergic a2A (adrenergic α2A receptor; 100 nM test compound): 27.2%
- percent displacement of bound radioligand, adrenergic a2A (adrenergic α2A receptor; 10,000 nM test compound): 95.1%
- percent displacement of bound radioligand, adrenergic α2B (adrenergic α2B receptor; 100 nM test compound): 8.5%
- percent displacement of bound radioligand, adrenergic α2B (adrenergic α2B receptor; 10,000 nM test compound): 79.9%
- percent displacement of bound radioligand, opioid δ ([1]; 100 nM test compound): 8.6%
- percent displacement of bound radioligand, opioid δ ([1]; 10,000 nM test compound): 31.4%
- percent displacement of bound radioligand, opioid μ (mu opioid receptor (MOP); 100 nM test compound): 39.6%
- percent displacement of bound radioligand, opioid μ (mu opioid receptor (MOP); 10,000 nM test compound): 96.8%
- percent displacement of bound radioligand, nociceptin NOP (ORL1) (nociceptin NOP (ORL1); 100 nM test compound): −1.3%
- percent displacement of bound radioligand, nociceptin NOP (ORL1) (nociceptin NOP (ORL1); 10,000 nM test compound): 27.0%
